Among the test systems are SW-620; ACHN; MDA-MB-231; RPMI-8226; NCI-H460; COLO 205; A549; DU-145; HCC 2998; HL-60; SN12C; NCI-H23; SF-268; MOLT-4; SK-MEL-28; A498; Hs-578T; HCT-116; UO-31.
Common to all, as to experiment: NCI tumour cell line growth inhibition, 48 h

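Briefly, cells in 96-well plates were exposed to five compound concentrations for 48 h, and endpoints were estimated by linear interpolation. The concentration for 50% growth inhibition is given as GI50.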 Calls of active or inactive are those of the source. Rule as the data show it: active = GI50 up to about 1.1 µM and inactive = higher.

Consider `COc1ccc2cc(C(=O)NCCCNC(=O)c3ccc4cc(OC)ccc4c3)ccc2c1`, for which the GI50 was > 100 µM (inactive) in the test on SW-620; 33.7 µM (inactive) in the test on ACHN; 21.1 µM (inactive) with MDA-MB-231; > 100 µM (inactive) in the test with RPMI-8226; > 64.9 µM (inactive) in the test on NCI-H460; > 100 µM (inactive) in the test on COLO 205. Moreover, the GI50 was > 100 µM (inactive) with A549; > 100 µM (inactive) with DU-145; > 100 µM (inactive) in the test with HCC 2998; > 100 µM (inactive) in the test with HL-60; > 49.9 µM (inactive) in the test with SN12C; > 100 µM (inactive) in the test on NCI-H23. In addition, the GI50 in the test with SF-268 is 23.9 µM (inactive); with MOLT-4, > 100 µM (inactive); with SK-MEL-28 it was > 100 µM (inactive); in the test with A498, 44.8 µM (inactive); with Hs-578T it was 34.2 µM (inactive); with HCT-116, > 86.7 µM (inactive). The GI50 in the test on UO-31 was > 75.7 µM (inactive).
On to `CC1=C(C(=O)N(C)c2ccc(Cl)c(C(=O)OC(C)C)c2)SCCO1`, for which the GI50 in the test with SW-620 is > 100 µM (inactive); in the test with ACHN it was 61.5 µM (inactive); in the test with MDA-MB-231, > 100 µM (inactive); in the test on RPMI-8226, 26.6 µM (inactive); with NCI-H460, > 100 µM (inactive); in the test on COLO 205 it was 70.8 µM (inactive). For the same compound, the GI50 with A549 was 90.2 µM (inactive); in the test on DU-145, > 100 µM (inactive); with HCC 2998, > 100 µM (inactive); with HL-60 it was 33.7 µM (inactive); in the test on SN12C it was > 100 µM (inactive); in the test with NCI-H23 it was 44.2 µM (inactive). For the same compound, the GI50 in the test on SF-268 is > 100 µM (inactive); with MOLT-4, 38.5 µM (inactive); with SK-MEL-28 it was > 100 µM (inactive); in the test with A498 it was 74.3 µM (inactive); in the test with Hs-578T, > 100 µM (inactive); with HCT-116, 59.2 µM (inactive). Moreover, the GI50 with UO-31 was 27.2 µM (inactive).
For the compound `Cc1ccc(NC(=O)/C(Cc2cc(=O)oc3cc(O)ccc23)=N\NC(=O)C[N+](C)(C)C)cc1C`, the GI50 in the test on SW-620, in the test with ACHN, in the test with MDA-MB-231, with RPMI-8226, in the test with NCI-H460 and in the test with COLO 205 was > 100 µM (inactive) in each case. The GI50 with A549, in the test on DU-145, in the test on HCC 2998, with HL-60, in the test with SN12C and in the test with NCI-H23 was > 100 µM (inactive) throughout. The GI50 in the test with SF-268, with MOLT-4, in the test on SK-MEL-28, with A498, in the test on Hs-578T and in the test on HCT-116 was > 100 µM (inactive) throughout. Moreover, the GI50 in the test on UO-31 was > 100 µM (inactive).
In the case of `COc1cc(C2c3cc4c(cc3OC(NNS(=O)(=O)c3ccc(C)cc3)C2C)OCO4)cc(OC)c1OC` (stereo not given), the GI50 in the test on SW-620 is 1.01 µM (active); with ACHN it was 3 µM (inactive); in the test with MDA-MB-231, 4.24 µM (inactive); in the test with RPMI-8226, 2.08 µM (inactive); in the test on NCI-H460 it was 2.13 µM (inactive); with COLO 205, 2.81 µM (inactive). Further, the GI50 is 2.6 µM (inactive) with A549; 3.83 µM (inactive) with DU-145; 2.94 µM (inactive) in the test with HCC 2998; 0.5 µM (active) with HL-60; 4.21 µM (inactive) in the test on SN12C; 4.8 µM (inactive) in the test with NCI-H23. For the same compound, the GI50 in the test with SF-268 was 3.95 µM (inactive); in the test on MOLT-4, 1.89 µM (inactive); in the test on SK-MEL-28 it was 2.94 µM (inactive); with A498, 1.26 µM (inactive); in the test on Hs-578T it was 1.26 µM (inactive); with HCT-116 it was 1.29 µM (inactive). Besides, in the test with UO-31, the GI50 was 5.14 µM (inactive).
Consider `COc1ccc(CC2c3cc4c(cc3CCN2C)OCO4)c(C=O)c1OC` (stereo not given), for which the GI50 in the test with SW-620, with ACHN, in the test with MDA-MB-231, in the test with RPMI-8226, with NCI-H460 and with COLO 205 was > 100 µM (inactive) throughout. For the same compound, the GI50 in the test on A549, with DU-145, in the test on HCC 2998, with HL-60, in the test on SN12C and in the test on NCI-H23 was > 100 µM (inactive) in each case. For the same compound, the GI50 in the test with SF-268, with MOLT-4, in the test on SK-MEL-28, with A498, with Hs-578T and in the test with HCT-116 was > 100 µM (inactive) each time. In the test with UO-31, the GI50 is > 100 µM (inactive).
As for `C=CCCCCNC(=O)C[C@@H]1C2=C(CC[C@H]1O[Si](C)(C)C(C)(C)C)N1C(=O)CCC/C=C\C1C2` (stereo not given in full), the GI50 with SW-620 is 13.6 µM (inactive); in the test with ACHN, 15.4 µM (inactive); with MDA-MB-231, 13.3 µM (inactive); in the test on RPMI-8226, 5.71 µM (inactive); in the test with NCI-H460 it was 14.3 µM (inactive); in the test on COLO 205, 13.6 µM (inactive). Moreover, the GI50 is 13.1 µM (inactive) in the test with A549; 15 µM (inactive) in the test on DU-145; 10.4 µM (inactive) in the test on HCC 2998; 1.84 µM (inactive) with HL-60; 15.4 µM (inactive) in the test on SN12C; 13.7 µM (inactive) in the test with NCI-H23. The GI50 was 15.5 µM (inactive) in the test with SF-268; 5.89 µM (inactive) with MOLT-4; 15 µM (inactive) with SK-MEL-28; 15.2 µM (inactive) in the test on A498; 16.1 µM (inactive) in the test on Hs-578T; 13.3 µM (inactive) in the test on HCT-116. Besides, in the test on UO-31, the GI50 is 14.2 µM (inactive).
With `O=[N+]([O-])CC(SCc1ccccc1)c1ccc2c(c1)OCO2` (stereo not given), the GI50 is 3.81 µM (inactive) with SW-620; 13.1 µM (inactive) in the test with ACHN; 10.3 µM (inactive) with MDA-MB-231; 1.57 µM (inactive) with RPMI-8226; 14.8 µM (inactive) with NCI-H460; 8.24 µM (inactive) in the test with COLO 205. For the same compound, the GI50 in the test with A549 is 7.67 µM (inactive); with DU-145, 14.5 µM (inactive); with HCC 2998, 5.57 µM (inactive); with HL-60, 1.58 µM (inactive); in the test on SN12C it was 11.7 µM (inactive); in the test with NCI-H23 it was 7.19 µM (inactive). For the same compound, the GI50 is 9.4 µM (inactive) with SF-268; 3.37 µM (inactive) in the test on MOLT-4; 5.82 µM (inactive) in the test on SK-MEL-28; 6.98 µM (inactive) in the test on A498; 6.31 µM (inactive) in the test with Hs-578T; 1.69 µM (inactive) with HCT-116. The GI50 in the test on UO-31 was 8.26 µM (inactive).
On to `c1ccc2c(c1)nc1n2CCSC1`, for which the GI50 in the test with SW-620, in the test on ACHN, in the test with MDA-MB-231, in the test on RPMI-8226, in the test with NCI-H460 and in the test with COLO 205 was > 100 µM (inactive) throughout. The GI50 in the test with A549, in the test with DU-145, in the test on HCC 2998, in the test with HL-60, in the test on SN12C and with NCI-H23 was > 100 µM (inactive) each time. Besides, the GI50 in the test with SF-268, in the test with MOLT-4, with SK-MEL-28, with A498, with Hs-578T and in the test on HCT-116 was > 100 µM (inactive) each time. Further, the GI50 in the test with UO-31 was > 100 µM (inactive).
With `CC(C)=CCNc1nc(Cl)nc2[nH]cnc12`, the GI50 in the test with SW-620 was > 100 µM (inactive); with ACHN, 54.1 µM (inactive); in the test with MDA-MB-231, 21.5 µM (inactive); in the test on RPMI-8226, > 100 µM (inactive); in the test with NCI-H460, 16.7 µM (inactive); in the test on COLO 205, > 100 µM (inactive). The GI50 was 28.8 µM (inactive) with A549; > 100 µM (inactive) in the test on DU-145; > 100 µM (inactive) with HCC 2998; > 100 µM (inactive) in the test on HL-60; 57.7 µM (inactive) with SN12C; 56.6 µM (inactive) with NCI-H23. Further, the GI50 in the test with SF-268 is 55 µM (inactive); in the test on MOLT-4 it was 84.9 µM (inactive); in the test on SK-MEL-28, > 100 µM (inactive); with A498, 44 µM (inactive); with Hs-578T, 62.8 µM (inactive); in the test with HCT-116 it was 24.7 µM (inactive). Moreover, the GI50 with UO-31 is 37.4 µM (inactive).
As to `CC(=O)OCC1OC(N2C(S)=C(C#N)C(c3ccco3)C(C(C)=O)=C2c2ccccc2)C(OC(C)=O)C(OC(C)=O)C1OC(C)=O` (stereo not given), the GI50 with SW-620 was 89.9 µM (inactive); in the test with ACHN, > 10 µM (inactive); with MDA-MB-231, > 100 µM (inactive); in the test with RPMI-8226, 95.9 µM (inactive); with NCI-H460, > 100 µM (inactive); in the test on COLO 205 it was 64.9 µM (inactive). Besides, the GI50 in the test with A549 was 49.4 µM (inactive); in the test with DU-145 it was 79.8 µM (inactive); in the test with HCC 2998 it was > 100 µM (inactive); in the test with HL-60, > 100 µM (inactive); in the test with SN12C, 29.4 µM (inactive); in the test on NCI-H23, 64.4 µM (inactive). Besides, the GI50 in the test with SF-268 is > 100 µM (inactive); with MOLT-4, > 100 µM (inactive); in the test on SK-MEL-28 it was 30.1 µM (inactive); in the test with A498 it was > 100 µM (inactive); in the test on Hs-578T it was 17.7 µM (inactive); with HCT-116 it was 51.9 µM (inactive). Moreover, in the test with UO-31, the GI50 is 29.3 µM (inactive).
